pIC50: −log10 of the molar value. Calls of active or inactive are those of the source. The rule behind the calls is not given here.
Tests used:
[1] = Cytotoxicity against human MCF-10A cells incubated for 72 hrs by MTT assay; type: toxicity, cell-based
MDA-MB-436 = assay: Antitumor activity against BRCA 1-deficient human MDA-MB-436 cells incubated for 72 hrs by MTT assay; type: functional, cell-based; details: MDA-MB-436, 72 h
HCC1937 = assay: Antitumor activity against BRCA 1-deficient human HCC1937 cells incubated for 72 hrs by MTT assay; type: functional, cell-based; details: HCC1937, 72 h
MDA-MB-231 [2] = assay: Antitumor activity against human MDA-MB-231 cells harboring wild-type BRCA incubated for 72 hrs by MTT assay; type: functional, cell-based; details: MDA-MB-231, 72 h
MDA-MB-468 = assay: Antitumor activity against human MDA-MB-468 cells harboring wild-type BRCA incubated for 72 hrs by MTT assay; type: functional, cell-based; details: MDA-MB-468, 72 h
[3] = Toxicity in BALB/c nude mouse xenografted with human MDA-MB-231 cells assessed as body weight change at 20 mg/kg, ip administered on every 2 days for 28 days; type: organism-based; details: in vivo, 672 h, time 28 day
[4] = Toxicity in BALB/c nude mouse xenografted with human MDA-MB-231 cells assessed as drug tolerance at 20 mg/kg, ip administered on every 2 days for 28 days; type: organism-based; details: in vivo, 672 h, time 28 day
MDA-MB-231 [5] = assay: Antitumor activity against human MDA-MB-231 cells xenografted in BALB/c nude mouse assessed as increase in necrotic cells at 20 mg/kg, ip administered on every 2 days for 28 days by H and E staining based analysis; type: functional, organism-based; details: time 28.0 day
MDA-MB-231 [6] = assay: Antitumor activity against human MDA-MB-231 cells xenografted in BALB/c nude mouse assessed as increase in apoptotic cells at 20 mg/kg, ip administered on every 2 days for 28 days by H and E staining based analysis; type: functional, organism-based; details: time 28.0 day
MDA-MB-231 [7] = assay: Antitumor activity against human MDA-MB-231 cells xenografted in BALB/c nude mouse assessed as decrease in Ki-67 expression at 20 mg/kg, ip administered on every 2 days for 28 days by H and E staining based analysis; type: functional, organism-based; details: time 28.0 day

Row | SMILES | IC50 at 72 h [1] [µM] | pIC50 (MDA-MB-436) | pIC50 (HCC1937) | pIC50 (MDA-MB-231 [2]) | pIC50 (MDA-MB-468) | Activity [3] | Activity [4] | Activity (MDA-MB-231 [5]) | Activity (MDA-MB-231 [6]) | Activity (MDA-MB-231 [7])
1 | COc1cc(OC)c(/C=C/S(=O)(=O)Cc2ccc(OC)c(NCCCCCC(=O)N3CCN(C(=O)c4cc(Cc5n[nH]c(=O)c6ccccc56)ccc4F)CC3)c2)c(OC)c1 | > 40 | 5.66 | 5.51 | 5.57 | 5.34 | – | – | – | – | –
2 | COc1cc(OC)c(/C=C/S(=O)(=O)Cc2ccc(OC)c(NC(=O)CCCC(=O)N3CCN(C(=O)c4cc(Cc5n[nH]c(=O)c6ccccc56)ccc4F)CC3)c2)c(OC)c1 | > 40 | 5.71 | 5.70 | 5.56 | 5.44 | – | – | – | – | –
3 | COc1cc(OC)c(/C=C/S(=O)(=O)Cc2ccc(OC)c(NCC(=O)N3CCN(C(=O)c4cc(Cc5n[nH]c(=O)c6ccccc56)ccc4F)CC3)c2)c(OC)c1 | > 40 | 5.84 | 5.70 | 5.89 | 5.86 | – | – | – | – | –
4 | COc1cc(OC)c(/C=C/S(=O)(=O)Cc2ccc(OC)c(NC(=O)CCCCC(=O)N3CCN(C(=O)c4cc(Cc5n[nH]c(=O)c6ccccc56)ccc4F)CC3)c2)c(OC)c1 | > 40 | 5.42 | 5.43 | 5.34 | 5.31 | – | – | – | – | –
5 | COc1cc(OC)c(/C=C/S(=O)(=O)Cc2ccc(OC)c(NCCCCCC(=O)O)c2)c(OC)c1 | > 40 | 5.49 | 5.32 | 5.64 | 5.27 | – | – | – | – | –
6 | COc1cc(OC)c(/C=C/S(=O)(=O)Cc2ccc(OC)c(NCC(=O)O)c2)c(OC)c1 [RIGOSERTIB] | 18.4 | 6.60 | 6.48 | 6.64 | 6.35 | – | – | – | – | –
7 | O=C(c1cc(Cc2n[nH]c(=O)c3ccccc23)ccc1F)N1CCN(C(=O)C2CC2)CC1 [OLAPARIB] | > 40 | 5.37 | 5.27 | 4.59 | 4.83 | Non-Toxic | Non-Toxic | Active | Active | Active
